{
  "source": "patent US9132084B2",
  "about": "“Methods for administration and formulations for the treatment of regional adipose tissue” (NEOTHETICS, INC., priority 2009, dated 2015)",
  "assay": "Plasma pharmacokinetics following a single intravenous and subcutaneous injection of a combination of formoterol and budesonide",
  "settings": "for AUC(0-inf): AUCinf; for bioavailability: F (bioavailability); for concentration at 0.0333 hr: female 2-0623, 0.0333 hr; for concentration at 0.0833 hr: female 2-0623, 0.0833 hr; for concentration at 0.167 hr: female 2-0623, 0.167 hr; for concentration at 0.333 hr: female 2-0623, 0.333 hr; for concentration at 0.5 hr: female 2-0623, 0.500 hr; for concentration at 0.75 hr: female 2-0623, 0.750 hr; for concentration at 1 hr: female 2-0623, 1.00 hr; for concentration at 2 hr: female 2-0623, 2.00 hr; for concentration at 4 hr: female 2-0623, 4.00 hr; for concentration at 8 hr: female 2-0623, 8.00 hr",
  "method": "Formoterol fumarate dehydrate and budesonide were formulated in 2% PEG-400 in saline. 1 male and 1 female non-naive Gottingen minipigs (8 to 12 kg upon receipt per protocol) were utilized. The animals were housed individually.\nEach minipig received a single IV injection of the combined formoterol and budesonide formulation followed by testing of the SC doses. Each dose was separated by at least a 3-day washout period. The IV dose was administered by slow bolus (1 minute; 0.017 hr) into the marginal ear vein, whereas the first SC dose was administered as a bolus injection along the back (neck-region) where there was a longitudinal fat depot. The second SC dose was distributed in 5 separate proximal SC injections separated by approximately 2 cm. Blood samples (approximately 4 mL) were collected via the branchiocephalic plexus at pre-dose and at 2, 5, 10, 20, 30 and 45 minutes, and at 1, 2, 4, 8 and 24 hr post-dose. Blood samples were placed in tubes containing K2-EDTA as the anticoagulant. Samples were processed to plasma by centrifugation and stored frozen at approximately −70° C. (+/−15° C.) until shipment for analysis.\nPlasma samples were analyzed for formoterol and budesonide using a qualified liquid chromatography/mass spectrometry/mass mass spectrometry (LC/MS/MS) method. The lower limit of quantitation (LLOQ) was 1.00 pg/mL for formoterol and 25.0 pg/mL for budesonide.\nNon-compartmental pharmacokinetic parameters were calculated using WinNonlin 5.2 software, NCA model 202, IV infusion input for the IV data and NCA model 200, extravascular input for the SC data. Individual plasma concentrations for each animal were used in the calculation of pharmacokinetic parameters. Nominal collection times and doses were used in the calculations. The area under the plasma concentration-time curve (AUC) was calculated using linear trapezoidal approximation (linear/log interpolation). Concentration values below the assay limit of quantitation were set to zero for calculations. The maximum plasma concentration (Cmax) and the time of its occurrence (Tmax) were verified by inspection. The half-life (t1/2) values were calculated using the last 3 plasma concentrations with nonzero values, if data permitted.",
  "key": {"[1]": {"settings": "female, Gottingen, minipig, in vivo, formoterol 0.4 μg/kg SC1 single site, combination, female 2-0623"}, "[2]": {"settings": "female, Gottingen, minipig, in vivo, formoterol 0.4 μg/kg SC5 (5 sites), combination, female 2-0623"}, "[3]": {"settings": "female, Gottingen, minipig, in vivo, Plasma concentration of formoterol, SC1 0.4 μg/kg, combination"}, "[4]": {"settings": "female, Gottingen, minipig, in vivo, Plasma concentration of formoterol, SC5 0.4 μg/kg, combination"}, "[5]": {"settings": "female, Gottingen, minipig, in vivo, iv, 0.4 ug/kg"}, "[6]": {"settings": "female, Gottingen, minipig, in vivo, iv, 0.4 ug/kg, formoterol 0.4 μg/kg IV in combination with budesonide, female 2-0623"}, "[7]": {"settings": "female, Gottingen, minipig, in vivo, iv, Plasma concentration of formoterol, IV 0.4 μg/kg, combination"}},
  "data": [
    {"smiles": "COc1ccc(CC(C)NCC(O)c2ccc(O)c(NC=O)c2)cc1", "note": "(centres unmarked) [Formoterol, formoterol]", "values": [
      {"measurement": "Plasma concentration of formoterol", "setting": "IV 0.4 μg/kg, combination, female 2-0623, 24.0 hr", "result": "<LLOQ (LLOQ = 1.00 pg/mL for formoterol)"},
      {"measurement": "Plasma concentration of formoterol", "setting": "IV 0.4 μg/kg, combination, male 1-0771, 0 hr", "result": "<LLOQ (LLOQ = 1.00 pg/mL for formoterol)"},
      {"measurement": "Plasma concentration of formoterol", "setting": "IV 0.4 μg/kg, combination, male 1-0771, 24.0 hr", "result": "<LLOQ (LLOQ = 1.00 pg/mL for formoterol)"},
      {"measurement": "Plasma concentration of formoterol", "setting": "SC1 0.4 μg/kg, combination, female 2-0623, 0 hr", "result": "<LLOQ (LLOQ = 1.00 pg/mL for formoterol)"},
      {"measurement": "Plasma concentration of formoterol", "setting": "SC1 0.4 μg/kg, combination, female 2-0623, 24.0 hr", "result": "<LLOQ (LLOQ = 1.00 pg/mL for formoterol)"},
      {"measurement": "Plasma concentration of formoterol", "setting": "SC5 0.4 μg/kg, combination, female 2-0623, 0 hr", "result": "<LLOQ (LLOQ = 1.00 pg/mL for formoterol)"},
      {"measurement": "Plasma concentration of formoterol", "setting": "SC5 0.4 μg/kg, combination, male 1-0771, 0 hr", "result": "<LLOQ (LLOQ = 1.00 pg/mL for formoterol)"},
      {"measurement": "AUC(0-inf)", "setting": "[1]", "result": 0.378, "unit": "ng·h/mL"},
      {"measurement": "AUC(0-inf)", "setting": "[2]", "result": 0.577, "unit": "ng·h/mL"},
      {"measurement": "Cmax", "setting": "[1]", "result": 0.284, "unit": "ng/mL"},
      {"measurement": "Cmax", "setting": "[2]", "result": 0.256, "unit": "ng/mL"},
      {"measurement": "bioavailability", "setting": "[1]", "result": 115, "unit": "%"},
      {"measurement": "bioavailability", "setting": "[2]", "result": 176, "unit": "%"},
      {"measurement": "concentration at 0.0333 hr", "setting": "[3]", "result": 0.169, "unit": "ng/mL"},
      {"measurement": "concentration at 0.0833 hr", "setting": "[3]", "result": 0.284, "unit": "ng/mL"},
      {"measurement": "concentration at 0.167 hr", "setting": "[3]", "result": 0.237, "unit": "ng/mL"},
      {"measurement": "concentration at 0.333 hr", "setting": "[3]", "result": 0.156, "unit": "ng/mL"},
      {"measurement": "concentration at 0.5 hr", "setting": "[3]", "result": 0.127, "unit": "ng/mL"},
      {"measurement": "concentration at 0.75 hr", "setting": "[3]", "result": 0.0789, "unit": "ng/mL"},
      {"measurement": "concentration at 1 hr", "setting": "[3]", "result": 0.0678, "unit": "ng/mL"},
      {"measurement": "concentration at 2 hr", "setting": "[3]", "result": 0.0512, "unit": "ng/mL"},
      {"measurement": "concentration at 4 hr", "setting": "[3]", "result": 0.0285, "unit": "ng/mL"},
      {"measurement": "concentration at 8 hr", "setting": "[3]", "result": 0.00858, "unit": "ng/mL"},
      {"measurement": "concentration at 0.0333 hr", "setting": "[4]", "result": 0.0946, "unit": "ng/mL"},
      {"measurement": "concentration at 0.0833 hr", "setting": "[4]", "result": 0.256, "unit": "ng/mL"},
      {"measurement": "concentration at 0.167 hr", "setting": "[4]", "result": 0.178, "unit": "ng/mL"},
      {"measurement": "concentration at 0.333 hr", "setting": "[4]", "result": 0.131, "unit": "ng/mL"},
      {"measurement": "concentration at 0.5 hr", "setting": "[4]", "result": 0.1, "unit": "ng/mL"},
      {"measurement": "concentration at 0.75 hr", "setting": "[4]", "result": 0.0826, "unit": "ng/mL"},
      {"measurement": "concentration at 1 hr", "setting": "[4]", "result": 0.0628, "unit": "ng/mL"},
      {"measurement": "concentration at 2 hr", "setting": "[4]", "result": 0.0444, "unit": "ng/mL"},
      {"measurement": "concentration at 4 hr", "setting": "[4]", "result": 0.026, "unit": "ng/mL"},
      {"measurement": "concentration at 8 hr", "setting": "[4]", "result": 0.0103, "unit": "ng/mL"},
      {"measurement": "concentration at 24 hr", "setting": "female, Gottingen, minipig, in vivo, Plasma concentration of formoterol, SC5 0.4 μg/kg, combination, female 2-0623, 24.0 hr", "result": 0.00695, "unit": "ng/mL"},
      {"measurement": "Tmax", "setting": "[1]", "result": 5, "unit": "min"},
      {"measurement": "Tmax", "setting": "[2]", "result": 5, "unit": "min"},
      {"measurement": "Vd", "setting": "[5]", "result": 3.17, "unit": "L/kg"},
      {"measurement": "clearance", "setting": "[5]", "result": 20.3, "unit": "mL/min/kg"},
      {"measurement": "AUC(0-inf)", "setting": "[6]", "result": 0.328, "unit": "ng·h/mL"},
      {"measurement": "Cmax", "setting": "[6]", "result": 0.9, "unit": "ng/mL"},
      {"measurement": "Tmax", "setting": "[6]", "result": 2, "unit": "min"},
      {"measurement": "half-life", "setting": "female, Gottingen, minipig, in vivo, iv, 0.4 ug/kg, t1/2, formoterol 0.4 μg/kg IV in combination with budesonide, female 2-0623", "result": 2.86, "unit": "h"},
      {"measurement": "concentration at 0 hr", "setting": "female, Gottingen, minipig, in vivo, iv, Plasma concentration of formoterol, IV 0.4 μg/kg, combination, female 2-0623, 0 hr", "result": 0.00353, "unit": "ng/mL"},
      {"measurement": "concentration at 0.0333 hr", "setting": "[7]", "result": 0.9, "unit": "ng/mL"},
      {"measurement": "concentration at 0.0833 hr", "setting": "[7]", "result": 0.204, "unit": "ng/mL"},
      {"measurement": "concentration at 0.167 hr", "setting": "[7]", "result": 0.11, "unit": "ng/mL"},
      {"measurement": "concentration at 0.333 hr", "setting": "[7]", "result": 0.0735, "unit": "ng/mL"},
      {"measurement": "concentration at 0.5 hr", "setting": "[7]", "result": 0.0984, "unit": "ng/mL"},
      {"measurement": "concentration at 0.75 hr", "setting": "[7]", "result": 0.0614, "unit": "ng/mL"},
      {"measurement": "concentration at 1 hr", "setting": "[7]", "result": 0.0454, "unit": "ng/mL"},
      {"measurement": "concentration at 2 hr", "setting": "[7]", "result": 0.0313, "unit": "ng/mL"},
      {"measurement": "concentration at 4 hr", "setting": "[7]", "result": 0.0184, "unit": "ng/mL"},
      {"measurement": "concentration at 8 hr", "setting": "[7]", "result": 0.00726, "unit": "ng/mL"},
      {"measurement": "half-life", "setting": "female, Gottingen, minipig, in vivo, t1/2, formoterol 0.4 μg/kg SC1 single site, combination, female 2-0623", "result": 2.33, "unit": "h"},
      {"measurement": "half-life", "setting": "female, Gottingen, minipig, in vivo, t1/2, formoterol 0.4 μg/kg SC5 (5 sites), combination, female 2-0623", "result": 12.8, "unit": "h"},
      {"measurement": "tlast", "setting": "formoterol 0.4 μg/kg IV in combination with budesonide, female 2-0623", "result": 8.00, "unit": "h"}
    ]}
  ]
}
